We go through one sequence from US11484575B2, “Compositions and methods comprising bone morphogenetic protein and NEMO binding peptide” (Cedars-Sinai Medical Center, priority 2018, dated 2022).

For one series, the system named is rat spine fusion model. The series is described as follows: Manual palpation fusion, rat posterolateral spine fusion model. The format is in vivo, Sprague Dawley rats. Particulars: freshly harvested spine explants, 12 weeks. The procedure: Sixteen male adult (220 to 260 g) Sprague Dawley rats were utilized to compare BMP-2 mediated spine fusion in presence and absence of NBD. […] Therefore, this concentration of BMP-2 was employed. In detail, eight rats underwent single-level posterolateral fusion in the lumber spine using BMP-2 (total dose of 30 μg/side/rat) and NBD ([…]) loaded ACS and eight rats served as positive controls (30 μg/side/rat BMP-2-loaded ACS, no NBD). Rat spines were allowed to heal and consolidate for 12 weeks. Radiographical fusion was determined via high-resolution radiographs obtained at monthly intervals postoperatively. After 12 weeks, ex vivo micro-computed tomography was performed on explanted spines to determine the structural properties of the fusion mass. For functional assessment of spinal fusion, manual palpation was performed. Finally, histological evaluation of spine fusion was performed in terms of Masson-trichrome staining (Table 1). The posterolateral intertransverse process fusion surgical procedure is described briefly. […] The condition of the rats was monitored daily. […] Fusion was determined via manual palpation of segments by two independent observers. Any motion that was detected between the L4 and L5 segment, including the transverse process or vertebral bodies, was considered to indicate a fusion failure. […]

Series [1] deals with carrageenan-induced edema. Particulars: cited from earlier work.
The conditions of series [2]: phase I clinical trial in dogs; cited from earlier work.
The test system of another series is NFκB. Particulars: without affecting the basal activity of IKK; cited from earlier work.
Series [3] deals with inflammatory bone destruction. As to conditions: cited from earlier work.

For the sequence “TALDWSWLQTE (listed as Homo sapiens) [NBD]”, in the series on rat spine fusion model, the “fusion by manual palpation” value is reported as 100%. Moreover, the “paw edema in mice” value in series [1] (100 μg and 500 μg NBD) was “ameliorate”. Moreover, the “carrageenan-induced edema formation and cellular inflammation in mouse paws” value in series [1] (mouse, in vivo) is listed as “significantly inhibit”. Besides, the toxicity result in series [2] is “low toxicity”. The “pro-inflammatory cytokine-induced NFκB activation” value with NFκB was “block”. Also, in series [3] (continuous administration), the “inflammatory bone destruction in vivo” value was “prevent”. Moreover, in series [3] (in vivo), the signs of toxicity entry was “without showing signs of toxicity”.
